Source: patent US10124001B2, “Stem cell modulation II” (University of Canberra, priority 2013, dated 2018)
“Also recorded” adds a separate entry of the source.

What was measured:
MCF-7 cells [1] = test: TaqMan real time PCR transcript analysis of inducible EMT/CSC genes in MCF-IM model; assay type: cell-based, human; details: for transcription of key inducible EMT/CSC genes (laminin-5, uPAR, CD44): 1 hour prior to PMA 60 hrs
Source text: (§1) Human TaqMan™ primer sets used were: CD44, Hs00153304, CD24, Hs00273561, uPAR, Hs00182181, Laminin-5, Hs00194333, Zeb-1, Hs00611018, Fibronectin, Hs00415006 and Integrin-β, Hs00168458 (Applied Biosystems). Primers used for SYBR Green real-time PGR are: Zeb1 (sense: 5′-[…]-3′ and antisense: 5′-[…]-3′) and Cyclophilin A (sense: 5′-[…]-3′ and antisense: 5′-CACCACATGCTTGCCATCC-3′).
(§2) Total RNA was extracted using TRIzol® Reagent (Invitrogen) and first strand cDNA was synthesized using the Superscript™ III RNase H-reverse transcriptase kit (Invitrogen). TaqMan® Gene Expression Assays and SYBR Green real-time PCR were performed as previously described (Sutcliffe et al., 2009, Molecular and Cellular Biology, 29: 1972-86). MicroRNA assays were performed with the TaqMan® MicroRNA Reverse Transcription Kit (ABI 4366596) and the data were normalized to RNU6B as previously described in Sutcliffe et al. ([…], Molecular Cell 41:704-719).

MCF-7 cells [2] = test: FACS analysis of CD44high/CD24low CSC-like subpopulation in MCF-IM model; assay type: cell-based, human; details: for CD44 high CD24 low CSC-like subpopulation (FACS): bisindolylmaleimide-I 100 nm and 1 μM or Go6976 1 μM prior to PMA 60 hrs; for CSC formation (CD44high/CD24low, FACS): compound 27 1 uM for 24 hours pre-treatment, PMA 0.65 ng/ml 60 h
Experimental: (§3) The adherent human mammary adenocarcinoma MCF-7 and MDA-MB-231 cells were cultured in low glucose DMEM (Gibco) and both supplemented with 10% FCS, 2 mM L-glutamine and 0.1% PSN antibiotics. Cells were stimulated with 0.65 ng/ml of phorbol 12-myristate 13-acetate (PMA) (Sigma-Aldrich) or 20 ng/ml of TGF-β (R&D systems) for the times indicated. For Bisindolylmaleimide-I (Calbiochem) or PKC-θ peptide inhibitor (Calbiochem) studies, cells were pre-treated with 1 μM or 30 μM of inhibitor respectively for 1 h prior to stimulation in MCF-7 cells. In case of MDA-MB-231, cells were treated with 4 μM or 30 μM Bisindolylmaleimide-I or PKC-θ peptide inhibitor respectively.
(§4) To separate CSC from non-CSC (NCSC), florescence activated cell sorting (FACS) was performed on single-cell suspensions that were stained with anti-CD44-APC (559942, BD Biosciences) and anti-CD24-PE antibodies (555428, BD Biosciences) along with Hoechst 33258 to monitor cell viability. As used throughout this work, CSC are defined by minority CD44^high/CD24^low, whereas NCSC are defined by rest of the cell populations.

MCF-7 cells [3] = test: EMT morphology by phase contrast microscopy in MCF-IM model; assay type: cell-based, human
Experimental: as §3, with “Cells were stimulated with 0.65 ng/ml of phorbol 12-myristate 13-acetate (PMA) (Sigma-Aldrich) or 20 ng/ml of TGF-β (R&D systems) for the times indicated.” left out
(§5) phase contrast microscopy was performed where cells were viewed at ×4 magnification (wound healing assay) or ×10 magnification (EMT) using an Olympus fluorescence 1X^71 microscope (Olympus) and images were captured using DPController software (2002 Olympus Optical Co. LTD) and analysed using Photoshop CS3 (Adobe Systems Inc.). Scans were taken with a 10 μm scale bar.

MDA-MB 231 cells [4] = test: TaqMan real time PCR transcript analysis of EMT/CSC genes in basal/metastatic model; assay type: cell-based, human; details: bisindolylmaleimide-I 4 μM
Source text: as §1, §2

MDA-MB 231 cells [5] = test: FACS analysis of CD44high/CD24low CSC-like subpopulation in basal/metastatic model; assay type: cell-based, human; details: bisindolylmaleimide-I 4 μM
Experimental: as §3, §4

MCF-7 cells [6] = test: Mammosphere assay in MCF-IM model; assay type: cell-based, human; details: 1 μM for 1 hr prior to PMA stimulation, 6 days; mammospheres larger than 60 μm counted
Experimental: Mammosphere culture media components were purchased from StemCell Technologies and mammosphere assays were performed as recommended by the manufacturer's guidelines. Briefly, 40,000 cells/2 ml cell dilutions were then prepared and 2 ml of cells were seeded in the 6 well-ultralow adherent, flat bottom plates (Costar). Mammospheres larger than 60 μm were counted per well on day 7 and pictures were taken.

PKC-θ [7] = test: ChIP assay of PKC-θ chromatin association at CSC inducible gene promoters in MCF-IM model; assay type: cell-based, human
Experimental: ChIP buffers were purchased from Upstate Biotechnology and ChIP assays were performed according to the protocol supplied by Upstate Biotechnology as previously described (Sutcliffe et al., 2011, Molecular Cell. 41:704-719 ). Antibody used were: Anti-PKC-θ (Santa Cruz, sc-212), Anti-PKC-θ Phospho s695 (Abcam, ab76568) and Pol II c-21 (Abcam, ab817), Promoter primers used for RT-PCR were human CD44 (Fwd: […], Rev: […]), uPAR(Fwd: […], Rev: […]) and IL-6 (Fwd: […], Rev: […]). Sequential ChIP assays performed as described previously by Sutcliffe et al., (2011, Molecular Cell. 41: 704-719).

MDA-MB 231 cells [8] = test: EMT morphology by phase contrast microscopy in basal/metastatic model; assay type: cell-based, human; details: Bisindolylmaleimide 4 μM
Experimental: as §3, §5

NF-κB p65 = test: Immunoblotting of MCF-IM nuclear and cytoplasmic fractions for NF-κB p65; assay type: cell-based, human
Experimental: Immunoblot analysis was performed according to the manufacturer's protocol and as previously described (Rao et al., 2003 c-Rel is required for chromatin remodeling across the IL-2 gene promoter. Journal of immunology 170:3724-3731.) with anti-PKC-θ (sc-212, SantaCruz), anti-p65 (ab7970, Abcam), anti-p65 phospho (ser-468) (3039, Cell Signaling), anti-p65 phospho (ser-536) (3031, Cell Signaling) and RNA Pol II(c-21) (ab817, Abcam) antibodies.

PKC-θ [9] = biological target: PKC-θ (Homo sapiens, UniProt Q04759); test: PKC ELISA-based kinase assay, in-vitro PKC-θ activity; assay type: biochemical; details: FIG. 6A
Experimental: (§6) PKC activity assay were purchased from Enzo Life Sciences (DI-EKS-420A) and assays were performed according to the manufacture's protocol as previously described (Sutcliffe, 2012, supra).
(§7) PKC-θ and PKC-β activity assays (Enzo Life Sciences; DI-EKS-420A) were performed according to the manufacturer's protocol and as previously described (Sutcliffe et. Al., 2012. Chromatinized Protein Kinase C-theta: Can It Escape the Clutches of NF-kappaB? Front Immunol 3:260).

PKC = PKC ELISA-based kinase assay of nuclear or cytoplasmic extract from MCF-IM; assay type: cell-based, human; details: assays without specific immunoprecipitates, global PKC activity (FIG. 6B)
Experimental: as §6, §7

NF-κB p50 and p65 = test: NF-κB activity assay (TransAM NF-κB Family kit), MCF-IM nuclear extracts; assay type: cell-based, human; details: MCF-IM treated with C27 vs vehicle
Experimental: TransAM NF-κB Family kit was used for NF-κB activity assays (43296, Active Motif). Assays were performed according to the manufacturer's guidelines. 5 μg protein from MDA-MB231 or MCF-IM derived whole cell, nuclear and cytoplasmic extracts were used in triplicate for the assays. Raji nuclear extract was used as a positive control Wild-type and mutated consensus oligonucleotides were also used as a negative and positive controls respectively.

Sequence of PKC-θ (Homo sapiens, UniProt Q04759) (Q04759 whole entry): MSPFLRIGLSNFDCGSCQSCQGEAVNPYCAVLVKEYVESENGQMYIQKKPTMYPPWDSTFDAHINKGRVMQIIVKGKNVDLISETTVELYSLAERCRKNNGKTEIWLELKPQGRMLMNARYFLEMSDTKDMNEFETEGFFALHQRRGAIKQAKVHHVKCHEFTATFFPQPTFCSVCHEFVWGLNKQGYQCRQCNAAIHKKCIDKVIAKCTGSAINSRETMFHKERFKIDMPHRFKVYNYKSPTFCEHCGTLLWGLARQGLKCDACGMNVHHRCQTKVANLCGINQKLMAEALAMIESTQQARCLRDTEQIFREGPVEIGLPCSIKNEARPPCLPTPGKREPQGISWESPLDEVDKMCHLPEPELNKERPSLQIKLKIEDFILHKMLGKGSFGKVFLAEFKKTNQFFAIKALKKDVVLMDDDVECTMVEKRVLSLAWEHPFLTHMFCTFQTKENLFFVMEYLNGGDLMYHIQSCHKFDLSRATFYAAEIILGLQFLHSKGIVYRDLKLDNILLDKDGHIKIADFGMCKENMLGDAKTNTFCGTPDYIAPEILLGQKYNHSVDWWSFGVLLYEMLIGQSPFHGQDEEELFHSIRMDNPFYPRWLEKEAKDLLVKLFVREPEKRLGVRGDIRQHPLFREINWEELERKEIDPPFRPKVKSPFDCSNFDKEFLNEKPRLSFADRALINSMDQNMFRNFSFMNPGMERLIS

Cn1c2ccccc2c2c3c(c4c5ccccc5n(CCC#N)c4c21)CNC3=O [Go6976]
transcription of key inducible EMT/CSC genes (laminin-5, uPAR, CD44) (MCF-7 cells [1]; 1 μM): failed to inhibit transcription of key inducible EMT/CSC genes
CD44 high CD24 low CSC-like subpopulation (FACS) (MCF-7 cells [2]): but not Go 6976 inhibits
PMA-induced CSC formation (MCF-7 cells [2]; pre-incubation with Go6976): did not prevent
PMA-induced EMT-like morphological changes (MCF-7 cells [3]; pre-incubation with Go6976): did not prevent PMA-induced EMT-like morphological changes

CN(C)CCCn1cc(C2=C(c3c[nH]c4ccccc34)C(=O)NC2=O)c2ccccc21 [bisindolylmaleimide-I, Bisindolylmaleimide-I]
transcription of key inducible EMT/CSC genes (laminin-5, uPAR, CD44) (MCF-7 cells [1]; 100 nM): cannot inhibit transcription of key inducible EMT/CSC genes
transcription of key inducible EMT/CSC genes (laminin-5, uPAR, CD44) (MCF-7 cells [1]; 1 μM): inhibits transcription of key inducible EMT/CSC genes
transcription of key inducible EMT/CSC genes (laminin-5, uPAR, CD44) (MDA-MB 231 cells [4]): inhibits transcription of key inducible EMT/CSC genes
CD44 high CD24 low CSC-like subpopulation (FACS) (MDA-MB 231 cells [5]): inhibits CD44 high CD24 low-CSC-like subpopulation
mammosphere formation (MCF-7 cells [6]): reduce mammosphere formation
CD44 high CD24 low CSC-like subpopulation (FACS) (MCF-7 cells [2]): only very high concentration of bisindolylmaleimide-I
EMT (morphology) (MCF-7 cells [3]; bisindolylmaleimide 1 μM, 1 hr pre-treatment before PMA stimulation 60 hrs): inhibits EMT
binding of PKC-θ on the CD44 gene promoter (ChIP) (PKC-θ [7]; as worded in Example 4): reduction of binding of PKC-θ on the CD44 gene promoter
PKC-θ chromatin association across the uPAR promoter (ChIP) (PKC-θ [7]; bisindolylmaleimide-I 1 μM 1 hr pre-incubation, or siRNA 48 hrs, then PMA 60 hrs): reduces its chromatin association across the uPAR promoter
EMT (morphology) (MDA-MB 231 cells [8]): inhibits EMT

CC(C)[C@@](C)(O)[C@@H]1CN(c2nc(-c3n[nH]c4ncccc34)c(F)cc2Cl)CCN1 [Compound C27]
p65 in the cytoplasmic fraction (NF-κB p65; C27 treated epithelial and mesenchymal cells, cytoplasmic fraction): global accumulation of p65 was observed in the cytoplasmic fraction
p65 phosphorylation at serine 468 in nuclear extracts (NF-κB p65; MCF-IM nuclear extracts, with or without compound 27): this phosphorylation was inhibited
p65 abundance in the nuclei (pan-p65 antibody) (NF-κB p65; epithelial and mesenchymal state, nuclear fraction): inhibited p65 abundance in the nuclei
transcription of CSC inducible genes (MCF-7 cells [1]; C27 treatment, FIG. 6D): abolished
PKC-θ activity, in-vitro PKC-θ activity assay (PKC-θ [9]): abrogated PKC-θ activity
PKC-θ activity in nuclear and cellular extracts from MCF-IM pre-treated with C27 (PKC): abrogated PKC-θ activity
p50 nuclear activity (NF-κB p50 and p65): significantly decreased
p65 nuclear activity (NF-κB p50 and p65): significantly decreased
CSC formation (CD44high/CD24low, FACS) (MCF-7 cells [2]): abolished CSC formation
CSC formation (CD44high/CD24low, FACS) (MCF-7 cells [2]; listed as compound 27): prevents CSC formation

CCCCCCCCCCCCCC(=O)O[C@@H]1[C@@H](C)[C@@]2(O)[C@@H](C=C(CO)C[C@]3(O)C(=O)C(C)=C[C@@H]23)[C@@H]2C(C)(C)[C@]12OC(C)=O [PMA, Phorbol 12-Myristate 13-Acetate]
generation of CD44high/CD24low CSC like cells (MCF-7 cells [2]; induction of PKC pathway by PMA 0.65 ng/mL 60 hr): results in the generation of CD44^high/CD24^low-CSC like cells
EMT (percentage of cells undergoing EMT, morphology) (MCF-7 cells [3]; PMA 20 ng/mL for 60 hr, compared with TNF-α, EGF, IL-6, TGF-β): results in maximal EMT; also recorded: caused highest EMT changes
